Read-outs that look alike come from different tables or passages of the source.
What was measured:
E. coli MetRS [1] = molecular target: T1, E. coli MetRS (Escherichia coli, UniProt P00959); settings: for kcat (min^−1) or RSA (^32P-ATP formed min^−1 enzyme μM^−1): 25° C., pH 7.0
Description: (§3) Adenylation of α- and β-Amino Acids Catalyzed by E. coli PheRS, GlyRS, MetRS, and GluRS. […] Briefly, assay mixtures (50 μL) assembled at 25° C. contained the requisite α- or β^3-amino acid substrate (between 5 μM and 5 mM) in 100 mM HEPES (pH 7.0) containing 100 mM KCl, 15 mM MgCl2, 2 mM ATP, 0.5 mM NaPPi, and 50 μCi [^32P]-NaPPi). Reactions were initiated upon addition of enzyme (10 nM MetRS, 10 nM PheRS, or 50 nM GlyRS; 100 nM GluRS for reactions with α-Glu or 1.13 μM GluRS for reactions with β^3-Glu), incubated for various times (10 sec to 10 min), and halted by adding a 5 μL reaction aliquot to 100 μL quenching solution (10% charcoal, 0.5% HCl). 50 μL of 200 mM NaPPi in 1.5 N HCl was then added to each quenched reaction to decrease nonspecific binding of pyrophosphate to the charcoal. Each quenched reaction was then filtered through Whatman filter paper (number 3), previously washed with washing solution (200 mM NaPPi in 1 N HCl) using a 96-well BIO-DOT® apparatus (BioRad). Each well of the apparatus was then washed four times with 200 μL aliquots of washing solution (by pipetting washing solution up and down at least 10 times per wash) to minimize nonspecific binding of pyrophosphate to charcoal. Each experimental well was paired with an analogous control well (no-enzyme control) that lacked enzyme; a single membrane contained time points for both α- and β^3-amino acid substrates and all no-enzyme controls. The membrane was allowed to dry and was protected with a sheet of Microseal B adhesive seals (Biorad) prior to exposure to a BAS Storage Phosphor screen. Screens were imaged on a Typhoon 9500FLA biomolecule imager and the signal intensity of each dot was quantified using ImageJ to determine the relative amount of [^32P]-ATP formed as a function of time (Ctime). Each raw value were corrected by subtracting the intensity of the dot corresponding to the appropriate no-enzyme control (Cblank) and the resulting corrected values of Ccorr (representing the relative amounts of ^32P-ATP formed) were plotted as a function of time to determine values of relative ^32P-ATP formed per minute. Those values were divided by the concentration of enzyme used, and the data was plotted as relative specific activity (^32P-ATP formed min^−1×μM^−1 enzyme) and fitted using Prism by performing nonlinear regression using the least squares method and Equation 1 to obtain RSA (relative specific activity) and KM values (Equation 1 and Table 2).
(§4) In Equation 1, v is the apparent relative specific activity (relative ^32P-ATP formed per minute) obtained at each substrate concentration divided by the enzyme concentration, RSA is the relative specific activity, S is the concentration of substrate, and KM is the Michaelis-Menten constant.

E. coli MetRS [2] = molecular target: T1, E. coli MetRS; settings: for krev (apparent rate of deacylation): deacylation of aminoacyl-tRNA, MetRS 500 nM, 25° C.
Description: (§5) Deacylation assays. Large scale (200 μL) aminoacylation reactions were initiated using the conditions described above (iv). The reactions were allowed to proceed for 1 h at 37° C., after which each reaction mixture was phenol/chloroform extracted. In each case, the aminoacylated tRNA product was ethanol precipitated, and the buffer was exchanged using a micro Bio-Spin 6 column (BioRad) following the procedure specified by the manufacturer and 100 mM HEPES (pH 8.0) containing 100 mM KCl. The precise extent of aminoacylation was calculated using the procedure described above; the 2 μM concentration corresponds to total aminoacylated tRNA. Assays were performed at 25° C. in a 50 μL reaction with 2 μM [^32P]-aminoacyl-tRNA in 100 mM HEPES (pH 7.0) containing 100 mM KCl and 15 mM MgCl2.

E. coli MetRS [3] = molecular target: T1, E. coli MetRS
Description: Aminoacylation of α- and β^3-amino acids. All tRNAs were prepared for aminoacylation by heating ^32P-tRNA (in 100 mM HEPES (pH 7.0)) to 95° C. for 3 min, and adding sufficient aminoacylation buffer (100 mM HEPES (pH 7.0), 100 mM KCl, 15 mM MgCl2) to ensure [^32P-tRNA]=4 μM. This tRNA mixture was allowed to cool at RT for 30 min. […] Equal volumes of the tRNA and amino acid mix were combined, and enzyme was added to initiate the reaction. The final concentration of tRNA after mixing was 2 μM. Reactions were quenched at various time points by mixing 1 μL of the reaction mixture with 4 μL of P1 (Sigma) or S1 (Invitrogen) nuclease solution (0.5 U/μL final prepared from a 10 U/μL stock solution in 10 mM NaOAc (pH 5.0). PEI cellulose TLC plates were run as previously described (Ledoux, et al., Methods, 44:74 (2008)), exposed to a BAS Storage Phosphor Screen, and imaged using a Typhoon FLA9500 biomolecule imager. The intensity of each band was quantified using ImageJ. The sum of the intensities of the bands corresponding to [^32P]-AMP (IAMP) and aminoacyl-[^32P]-AMP (IAA) was set equal to 2 μM, and the concentration of aminoacylated-tRNA at each time point and each enzyme concentration (μM product formed, x) calculated from the equation x=[(IAA×2 μM)/(IAA+IAMP)]. The increase in aminoacyl-^32P-AMP over time was divided by the amount of enzyme used, plotted as a function of substrate concentration and fitted to a hyperbolic equation to obtain kcat and KM values, using Equation 1 and Prism as described for the adenylation reactions. For all aminoacylation reactions, kcat has units of reciprocal time (min^−1).

E. coli PheRS [4] = molecular target: T2, E. coli PheRS (Escherichia coli, UniProt P08312); assay: Adenylation of α- and β3-amino acids, pyrophosphate exchange assay; settings: for kcat (min^−1) or RSA (^32P-ATP formed min^−1 enzyme μM^−1): 25° C., pH 7.0
Description: as §3, §4

E. coli PheRS [5] = molecular target: T2, E. coli PheRS; assay: Aminoacylation of 32P-tRNA with α- and β3-amino acids; type: biochemical; parameters: made in house; host or cells: E. coli BL21(DE3); settings: for kcat: 2 μM tRNA
E. coli PheRS [6] = molecular target: T2, E. coli PheRS; assay: Deacylation assay of [32P]-aminoacyl-tRNA; type: biochemical; parameters: made in house; host or cells: E. coli BL21(DE3); settings: for krev (apparent rate of deacylation): deacylation of aminoacyl-tRNA, PheRS 500 nM, 25° C.
Description: as §5

E. coli TyrRS [7] = molecular target: T3, E. coli TyrRS (Escherichia coli, UniProt P0AGJ9); assay: Aminoacylation of 32P-tRNA with α- and β3-amino acids; type: biochemical
T3 construct: made in house; host or cells: E. coli BL21(DE3)
T3 sequence (P0AGJ9 1-424): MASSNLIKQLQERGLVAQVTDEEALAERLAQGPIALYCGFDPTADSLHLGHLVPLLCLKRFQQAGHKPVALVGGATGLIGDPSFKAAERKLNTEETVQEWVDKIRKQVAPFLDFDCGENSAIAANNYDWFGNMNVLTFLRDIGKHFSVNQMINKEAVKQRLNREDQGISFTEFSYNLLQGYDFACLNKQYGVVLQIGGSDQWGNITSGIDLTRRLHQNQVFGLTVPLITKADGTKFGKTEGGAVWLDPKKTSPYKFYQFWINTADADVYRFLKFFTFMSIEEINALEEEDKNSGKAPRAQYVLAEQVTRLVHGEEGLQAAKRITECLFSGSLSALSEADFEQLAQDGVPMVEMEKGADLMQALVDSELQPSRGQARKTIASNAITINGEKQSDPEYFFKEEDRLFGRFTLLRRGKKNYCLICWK

E. coli TyrRS [8] = molecular target: T3, E. coli TyrRS; assay: Adenylation of α- and β-Tyr, coupled MESG/PNP pyrophosphate release assay; type: biochemical
Description: ii. Adenylation of α- and β-Tyr catalyzed by E. coli TyrRS. These reactions were monitored spectrophotometrically in a coupled assay using inorganic pyrophosphatase, 2-amino-6-mercapto-7-methylpurine ribonucleoside (MESG), and purine nucleoside phosphorylase (PNP) to monitor the rate of pyrophosphate release, according to the manufacturer's instructions (Enzcheck Pyrophosphate assay kit, Thermo Fisher Scientific). The assay measures the increase in absorbance at 360 nm due to MESG phosphorolysis, and two molecules of MESG are consumed per pyrophosphate generated. This direct assay could be employed for TyrRS because the rate of ATP hydrolysis (in the absence of amino acid substrate) was insignificant, which was not the case for the other synthetases which therefore required the more laborious pyrophosphate exchange assay described above. […] For TyrRS, kcat is the turnover number (units of reciprocal time) since the change in absorbance can be directly correlated to concentration of pyrophosphate formed.

E. coli TyrRS [9] = molecular target: T3, E. coli TyrRS; assay: Deacylation assay of [32P]-aminoacyl-tRNA; type: biochemical; settings: deacylation of aminoacyl-tRNA, TyrRS 1 μM, 25° C.
Description: as §5

[10] = test system: BL21(DE3) cells expressing only WT ribosomes; assay: Expression of DHFR in 19/20 minimal media supplemented with amino acid (SDS-PAGE); type: cell-based, E. coli; settings: α-Phe added
Description: (§1) To evaluate the extent of in vivo β^3-amino acid incorporation, BL21 (DE3) cells were co-transformed via electroporation (vide infra) with two plasmids. […] The other plasmid encoded either the WT rrnb sequence (pLK35-rrnb), the 040329 mutant reported by Hecht (pLK35-040329.rrnb), or the P7A7 mutant (pLK35-P7A7.rrnb) identified during the puromycin sensitivity screen described above.
(§2) ii. β^3-amino acid incorporation. The subsequent protocol for in vivo β^3-amino acid incorporation employed minimal media and was adapted from procedures reported by Tirrell and Cropp (Liu, et al., Bioorg Med Chem Lett, 20:5613 (2010); Mandavi, et al., J Am Chem Soc, 135:2979 (2013)). Briefly, all 5 mL of the co-transformed cells prepared as described above were diluted into 100 mL of LB containing 50 ng/mL of kanamycin and […] of carbenicillin and grown to OD600=1.0, spun down, and then resuspended in 1/10th the original volume of 19/20 minimal media (10.5 g/L M9 salts, 0.1 mM CaCl2, 1 mM MgSO4, 1% glycerol, 100 μM of each amino acid (minus α-Phe), 25 mg/L thiamine, […] carbenicillin, 30 ng/mL kanamycin, 1 mM IPTG) supplemented with 1 mM of α-Phe or a β^3-Phe analog. Cells were grown overnight (18 h) at 37° C. while shaking (200 rpm). The cells were harvested by centrifugation (10 min at 4000×g) and resuspended in lysis buffer (50 mM NaH2PO4, 300 mM NaCl, 10 mM imidazole (pH 8.0)). Lysis was performed by sonication (Branson Sonifier 250) with 5 cycles of 20 s on, 20 s off. Lysed cells were then centrifuged for 20 min at 15000×g. The clarified cell lysate was incubated with Ni-NTA resin (Qiagen) for 1 h while gently rotating at 4° C. The Ni-NTA column was washed with lysis buffer prior to eluting proteins with elution buffer (50 mM NaH2PO4, 300 mM NaCl, 300 mM imidazole (pH 8.0)). Elutions were analyzed with SDS-PAGE to prepare material for in-gel trypsin digestions. Controls included side-by-side growths in (1) unsupplemented 19/20 minimal media, which contains only low levels of α-Phe present (negative control); (2). 19/20 minimal media supplemented with 1 mM α-Phe (positive control) and (3) and 19/20 minimal media supplemented with 1 mM β^3-Gly (negative control; β^3-aa that is not a β^3-Phe analog).

[11] = test system: BL21(DE3) cells expressing P7A7 ribosomes along with WT ribosomes; assay: as above; type: cell-based, E. coli; settings: media supplemented with 1 mM of the amino acid
Description: as §1, §2

[12] = test system: BL21(DE3) cells expressing 040329 ribosomes along with WT ribosomes; assay: as above; type: cell-based, E. coli; settings: 040329 + WT ribosomes, media supplemented with 1 mM of the amino acid
Description: as §1, §2

T1 sequence (P00959 whole entry): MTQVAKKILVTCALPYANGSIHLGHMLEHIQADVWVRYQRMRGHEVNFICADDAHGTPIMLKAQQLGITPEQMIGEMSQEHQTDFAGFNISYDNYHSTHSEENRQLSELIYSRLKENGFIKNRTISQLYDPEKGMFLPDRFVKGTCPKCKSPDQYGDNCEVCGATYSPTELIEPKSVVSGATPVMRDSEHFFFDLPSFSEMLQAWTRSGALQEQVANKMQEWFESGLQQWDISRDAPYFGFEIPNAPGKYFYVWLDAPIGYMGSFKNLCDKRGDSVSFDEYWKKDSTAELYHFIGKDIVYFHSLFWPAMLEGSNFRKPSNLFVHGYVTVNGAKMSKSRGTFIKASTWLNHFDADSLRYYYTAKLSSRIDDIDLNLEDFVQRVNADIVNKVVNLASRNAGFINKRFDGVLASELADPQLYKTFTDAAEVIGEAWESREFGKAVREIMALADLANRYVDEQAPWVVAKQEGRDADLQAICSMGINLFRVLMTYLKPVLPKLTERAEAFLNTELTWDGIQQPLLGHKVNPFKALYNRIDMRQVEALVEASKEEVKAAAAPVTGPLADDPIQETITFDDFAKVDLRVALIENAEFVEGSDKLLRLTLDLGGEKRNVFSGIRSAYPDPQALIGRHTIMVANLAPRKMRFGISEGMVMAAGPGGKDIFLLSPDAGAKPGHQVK
T2 sequence (P08312 whole entry): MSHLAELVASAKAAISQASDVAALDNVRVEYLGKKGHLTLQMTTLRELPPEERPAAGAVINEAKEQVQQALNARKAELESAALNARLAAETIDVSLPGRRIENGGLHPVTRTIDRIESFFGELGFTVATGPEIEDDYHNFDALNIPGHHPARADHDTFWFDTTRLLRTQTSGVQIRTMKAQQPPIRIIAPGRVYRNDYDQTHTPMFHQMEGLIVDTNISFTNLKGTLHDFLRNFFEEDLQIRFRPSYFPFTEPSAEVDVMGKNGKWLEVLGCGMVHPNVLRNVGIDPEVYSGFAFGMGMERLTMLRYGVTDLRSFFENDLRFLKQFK
T2 sequence (P07395 whole entry partner): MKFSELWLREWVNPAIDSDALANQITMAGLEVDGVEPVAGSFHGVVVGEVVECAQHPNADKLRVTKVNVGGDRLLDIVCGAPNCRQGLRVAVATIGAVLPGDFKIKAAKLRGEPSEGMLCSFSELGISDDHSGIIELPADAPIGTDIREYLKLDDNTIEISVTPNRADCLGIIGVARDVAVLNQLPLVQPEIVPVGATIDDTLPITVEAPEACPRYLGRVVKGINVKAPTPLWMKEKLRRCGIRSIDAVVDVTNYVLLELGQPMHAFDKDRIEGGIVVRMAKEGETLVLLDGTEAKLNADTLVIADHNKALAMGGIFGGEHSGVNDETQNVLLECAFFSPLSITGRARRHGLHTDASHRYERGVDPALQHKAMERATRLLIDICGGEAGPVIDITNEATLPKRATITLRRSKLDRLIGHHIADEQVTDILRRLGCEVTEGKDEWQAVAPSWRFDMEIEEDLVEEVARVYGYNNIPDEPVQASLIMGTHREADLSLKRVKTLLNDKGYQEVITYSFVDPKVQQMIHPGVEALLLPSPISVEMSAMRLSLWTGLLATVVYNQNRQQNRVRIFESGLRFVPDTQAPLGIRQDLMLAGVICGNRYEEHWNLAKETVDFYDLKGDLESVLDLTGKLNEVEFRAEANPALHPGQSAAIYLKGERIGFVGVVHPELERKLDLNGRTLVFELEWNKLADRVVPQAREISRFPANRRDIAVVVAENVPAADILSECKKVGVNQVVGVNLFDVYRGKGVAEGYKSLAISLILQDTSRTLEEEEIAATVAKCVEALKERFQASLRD

## CSCCC(N)CC(=O)O (stereo not drawn) [β-Met, β^3-methionine]
E. coli MetRS [1]; adenylation
  Km: 33.4 ± 22 µM
  kcat (min^−1) or RSA (^32P-ATP formed min^−1 enzyme μM^−1): 310 ± 47 ^32P-ATP formed min^−1 enzyme μM^−1
E. coli MetRS [2]
  krev (apparent rate of deacylation): 4.0 ± 1.8 min⁻¹
E. coli MetRS [3]; aminoacylation
  Km: 609 ± 243 µM
E. coli MetRS [3]; aminoacylation, 2 μM tRNA
  kcat: 0.0035 ± 0.0005 s⁻¹

## CSCC[C@H](N)C(=O)O [α-Met, Methionine]
E. coli MetRS [1]; adenylation
  Ratio (α-/β-) of KM: 0.70 ± 0.5
  Ratio (α-/β-) of RSA: 1.4 ± 0.2
  Ratio (α-/β-) of kcat/KM: 1.98 ± 1.5
  kcat (min^−1) or RSA (^32P-ATP formed min^−1 enzyme μM^−1): 430 ± 38 ^32P-ATP formed min^−1 enzyme μM^−1
E. coli MetRS [1]; adenylation phase
  preference for α-Met over β^3-Met: 2 fold
E. coli MetRS [2]
  krev (apparent rate of deacylation): 2.1 ± 1.7 min⁻¹
E. coli MetRS [2]; deacylation, MetRS
  Ratio (α/β) of krev: 0.52 ± 0.49
E. coli MetRS [3]; aminoacylation
  Ratio (α/β) of KM: 0.40 ± 0.18
  Ratio (α/β) of kcat: 6.8 ± 1.3
  Ratio (α/β) of kcat/KM: 17.0 ± 8.5
E. coli MetRS [3]; complete aminoacylation reaction
  preference (kcat/KM) for α-Met over β^3-Met: 19 fold

## NC(CC(=O)O)Cc1ccccc1 (stereo not drawn) [β-Phe, β^3-phenylalanine]
E. coli PheRS [4]
  Km: 300 ± 137 µM
  kcat (min^−1) or RSA (^32P-ATP formed min^−1 enzyme μM^−1): 41.6 ± 6.8 ^32P-ATP formed min^−1 enzyme μM^−1
E. coli PheRS [5]
  Km: 119 ± 51.5 µM
  kcat: 0.004 ± 0.0005 s⁻¹
E. coli PheRS [6]
  krev (apparent rate of deacylation): 0.32 ± 0.03 min⁻¹

## NC(CC(=O)O)Cc1ccc(O)cc1 (stereo not drawn) [β-Tyr, β^3-tyrosine]
E. coli TyrRS [7]
  Km: 340 ± 80.3 µM
E. coli TyrRS [7]; 2 μM tRNA
  kcat: 0.0208 ± 0.012 s⁻¹
E. coli TyrRS [8]
  Km: 450 µM
E. coli TyrRS [8]; kcat (turnover number)
  kcat (min^−1) or RSA (^32P-ATP formed min^−1 enzyme μM^−1): 0.027 ± 0.001 min⁻¹
E. coli TyrRS [9]
  krev (apparent rate of deacylation): 1.9 ± 0.6 min⁻¹

## N[C@@H](Cc1ccccc1)C(=O)O [α-Phe, Phenylalanine]
E. coli PheRS [4]
  Ratio (α-/β-) of KM: 0.18 ± 0.11
  Ratio (α-/β-) of RSA: 1.4 ± 0.3
  Ratio (α-/β-) of kcat/KM: 8.06 ± 5.63
  kcat (min^−1) or RSA (^32P-ATP formed min^−1 enzyme μM^−1): 59.1 ± 7.1 ^32P-ATP formed min^−1 enzyme μM^−1
E. coli PheRS [5]
  Ratio (α/β) of KM: 1.7 ± 0.9
  Ratio (α/β) of kcat: 3.7 ± 0.7
  Ratio (α/β) of kcat/KM: 2.2 ± 1.3
  kcat: 0.0143 ± 0.00183 s⁻¹
[10]
  level of DHFR, higher than trace amounts: approximately 8 fold
[11]
  level of DHFR: lower levels
[12]
  level of DHFR: significant levels
E. coli PheRS [6]
  krev (apparent rate of deacylation): 0.15 ± 0.008 min⁻¹
E. coli PheRS [6]; deacylation, PheRS
  Ratio (α/β) of krev: 0.49 ± 0.05

Source: US11203773B2, “Designer ribosomes and methods of use thereof for incorporating non-standard amino acids into polypeptides” (Yale University, priority 2016, dated 2021)
